Values joined by “and” are separate entries in the source; they are usually repeats but may differ in a detail not shown here. Equal entries are not always repeated.
Legend:
MKN45 cells [1] = experiment: Flow cytometry mitochondrial mass and membrane potential (MitoTracker Green / CMXRos); assay type: cell-based, human; conditions: for Fold change ΔΨm/MM: MKN45, IC50 doses 24 h, CMX-ROS/MitoGreen ratio vs untreated 1.0; for Fold change %CMXROS, ΔΨm / Fold change %MTGreen, MM: MKN45, fold change vs C, replicates
Method: (§1) We used flow cytometry to study the mitochondrial mass, mitochondrial membrane potential (ΔΨm) and cellular senescence of untreated and treated cells. Cells (5 × 10^4) were seeded in 24-multiwell dishes and cultured overnight. […] Cells were tripsinized, stained with Mitoprobes and resuspended in Flow buffer [1X PBS; 3% Fetal Bovine Serum (v/v); 3 mM EDTA (v/v)] before analysis with a 4-laser Attune NxT Acoustic Cytometer (Thermo Fisher Scientific). For Mitoprobe assays, […] DAPI (Sigma) was used to exclude dead cells. Data were analyzed with FlowJo 9.3 software (Tree Star Inc., Ashland, OR). For mitochondrial mass and ΔΨm measurement, Mitotracker Green (MTGreen, M7514, Invitrogen) and Mitotracker Red CMXRos (CMXROS, M7512, Invitrogen) were used, respectively. Probes were incubated with cells for 30 min at 37 °C at a concentration of 100 nM (MTGreen) and 20 nM (CMXROS), and fluorescence was detected using the filters (Ex488nm/Em530/30) BL1 and (Ex561nm/Em585/16) YL1, respectively. To determine mitochondria functionality, the ratio between ΔΨm (MitoTracker Red CMXRos) versus Mit. Mass (MitoTracker Green) was calculated. The gating strategy used in all the Flow Cytometry experiments is reflected in Fig.S10.

AGS cells [2] = experiment: as above; assay type: cell-based, human; conditions: for Fold change %CMXROS, ΔΨm / Fold change %MTGreen, MM: fold change vs C, replicates
Method: as §1

PANC1 cells [3] = experiment: as above; assay type: cell-based, human; conditions: for Fold change ΔΨm/MM: PANC1, IC50 doses 24 h, CMX-ROS/MitoGreen ratio vs untreated 1.0; for Fold change %CMXROS, ΔΨm / Fold change %MTGreen, MM: PANC1, fold change vs C, replicates
Method: as §1

PANC1 cells [4] = experiment: Clonogenic (CFU) assay after 1, 3, 24 h pre-treatment; assay type: cell-based, human
Method: (§2) For the clonogenic assay we used two different approaches. […] Then, cells were cultured in a 6-well plate at a very low concentration (2 × 10^3 cells per well) and incubated for 10 days. […] To evaluate the role of ROS in cell proliferation, we supplemented the growth medium with 0.5 mM NAC. After 10 days, the cells were fixed with 1% glutaraldehyde and stained with 0.1% crystal violet. The number of colonies was quantified directly and reflected as CFUs: Colony Forming Units.

MKN45 cells [5] = experiment: SA-β-Gal activity, CellEvent Senescence Green flow cytometry;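 also: IC50 concentration of each compound relative to untreated control set as 1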; assay type: cell-based, human; conditions: Fig. 3A, replicate values
Method: (§3) SA-β-Gal activity was measured following two different approaches. (i) AGS, MKN45 and PANC1 cells (5 × 10^4) were seeded in 24-multiwell dishes and incubated overnight. […] For flow cytometry cell senescence detection, cells were tripsinized, fixed for 15 min with PFA 4% and stained with the CellEvent Senescense Green Flow Cytometry Assay Kit (C10840, Invitrogen) according to manufacturer’s instructions. CellEvent Senescense Green Probe was used at a 1:500 dilution and fluorescence was detected using the filter (Ex488nm/Em530/30) BL1 with a 4-laser Attune NxT Acoustic Cytometer (Thermo Fisher Scientific). […] After 3 h, the treatments were removed, new supplemented medium was added, and cells were incubated for an additional 24 h. Finally, SA-β-Gal staining was performed using the Senescence Cells Histochemical Staining Kit (CS0030-1KT) according to the manufacturer’s instructions.

AGS cells [6] = experiment: as above; assay type: cell-based, human; conditions: Fig. 3A, replicate values
Method: as §3

PANC1 cells [7] = experiment: as above; assay type: cell-based, human; conditions: Fig. 3A, replicate values
Method: as §3

MKN45 cells [8] = experiment: Clonogenic (CFU) assay with or without NAC; assay type: cell-based, human; conditions: 10 days
Method: as §2

AGS cells [9] = experiment: Clonogenic (CFU) assay with or without NAC; assay type: cell-based, human; conditions: 10 days
Method: as §2

HPDE cells = experiment: Cell viability, crystal violet staining, non-tumoral cells; conditions: for IC50: read-out: IC50 concentration (± SD) at 48 h in non-tumoral cell lines; for percentage of viable cells: 48 h
Method: (§4) Cell viability was assessed using a crystal violet-based staining method. […] The cells (2 × 10^5) were seeded in 24-multiwell dishes in 0.5 mL of complete medium and incubated overnight. […] After 48 h, cells were fixed with 1% glutaraldehyde (20–30 min), washed with distilled water, and stained with 0.1% crystal violet. […] IC50 were calculated by using GraphPad Prism (version 8.0). Nonlinear regression was used to fit the data to the log (inhibitor) versus response (variable slope).

CC2509 fibroblasts = experiment: as above; conditions: CC2509, 48 h; for IC50: read-out: IC50 concentration (± SD) at 48 h in non-tumoral cell lines
Method: as §4

[10] = PANC1, 1 h pre-treatment at IC50, colonies after 10 days
[11] = PANC1, 3 h pre-treatment at IC50, colonies after 10 days
[12] = MKN45 + NAC 0.5 mM, IC50 concentration
[13] = MKN45, IC50 concentration, no NAC
[14] = AGS + NAC 0.5 mM, IC50 concentration
[15] = AGS, IC50 concentration, no NAC
[16] = MKN45 + NAC 0.5 mM, IC25 concentration
[17] = MKN45, IC25 concentration, no NAC
[18] = AGS + NAC 0.5 mM, IC25 concentration
[19] = AGS, IC25 concentration, no NAC
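For Fold change % Senescence in this document: IC50 concentration of each compound relative to untreated control set as 1.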

Compound: [NH2][Pt]([NH2])([Cl])[Cl] [CDDP, cisplatin, reference compound]
- Fold change ΔΨm/MM (MKN45 cells [1]): 0.77 and 0.76
- Fold change %CMXROS, ΔΨm (MKN45 cells [1]): 0.72 and 0.71
- Fold change %MTGreen, MM (MKN45 cells [1]): 0.94 and 0.93
- Fold change ΔΨm/MM (AGS cells [2]; IC50 doses 24 h, CMX-ROS/MitoGreen ratio vs untreated 1.0): 1.12 and 0.8 and 0.61
- Fold change %CMXROS, ΔΨm (AGS cells [2]): 0.87 and 0.86 and 0.72
- Fold change %MTGreen, MM (AGS cells [2]): 0.78 and 0.73 and 0.76
- Fold change ΔΨm/MM (PANC1 cells [3]): 0.48 and 0.57 and 0.56
- Fold change %CMXROS, ΔΨm (PANC1 cells [3]): 1.08 and 1.13
- Fold change %MTGreen, MM (PANC1 cells [3]): 1.99 and 2.23 and 2.11
- CFUs (PANC1 cells [4]; [10]): 160 and 132 and 144
- CFUs (PANC1 cells [4]; [11]): 20 and 28 and 36
- Fold change % Senescence (MKN45 cells [5]): 1.67 fold change and 1.92 fold change and 1.87 fold change
- Fold change % Senescence (AGS cells [6]): 1.16 fold change and 1.15 fold change and 1.2 fold change
- Fold change % Senescence (PANC1 cells [7]): 1.64 fold change and 1.11 fold change and 1.53 fold change
- colonies (CFUs), mean ± SD (MKN45 cells [8]; [12]): 1 ± 1.4
- colonies (CFUs), mean ± SD (MKN45 cells [8]; [13]): 1 ± 1
- colonies (CFUs), mean ± SD (AGS cells [9]; [14]): 0.7 ± 0.6
- colonies (CFUs), mean ± SD (AGS cells [9]; [15]): 0
- IC50 (HPDE cells): 0.45 ± 0.05 µM
- IC50 (CC2509 fibroblasts): 25 µM and 23.8 µM

Compound: CC(C)[NH][Pt@SP1]([I])([I])[NH]C(C)C [I6, cis-[PtI2(isopropylamine)2]]
- Fold change ΔΨm/MM (MKN45 cells [1]): 0.26 and 0.21 and 0.27
- Fold change %CMXROS, ΔΨm (MKN45 cells [1]): 0.24 and 0.19 and 0.3
- Fold change %MTGreen, MM (MKN45 cells [1]): 0.93 and 0.91 and 1.1
- Fold change %CMXROS, ΔΨm (AGS cells [2]): 0.58 and 0.29 and 0.42
- Fold change %MTGreen, MM (AGS cells [2]): 0.83 and 0.75 and 1.298
- Fold change ΔΨm/MM (PANC1 cells [3]): 0.61 and 0.39 and 0.44
- Fold change %CMXROS, ΔΨm (PANC1 cells [3]): 0.75 and 0.98 and 0.61
- Fold change %MTGreen, MM (PANC1 cells [3]): 1.22 and 2.53 and 2.1
- CFUs (PANC1 cells [4]; [10]): 336 and 264 and 360
- CFUs (PANC1 cells [4]; [11]): 292 and 280 and 324
- Fold change % Senescence (MKN45 cells [5]): 5.26 fold change and 5.34 fold change and 6.2 fold change
- Fold change % Senescence (AGS cells [6]): 5.13 fold change and 5.74 fold change and 3.46 fold change
- Fold change % Senescence (PANC1 cells [7]): 3.99 fold change and 3.23 fold change and 3.43 fold change
- colonies (CFUs), mean ± SD (MKN45 cells [8]; [16]): 526 ± 93
- colonies (CFUs), mean ± SD (MKN45 cells [8]; [12]): 46 ± 2
- colonies (CFUs), mean ± SD (MKN45 cells [8]; [17]): 1 ± 1.7
- colonies (CFUs), mean ± SD (MKN45 cells [8]; [13]): 0
- colonies (CFUs), mean ± SD (AGS cells [9]; [18]): 613 ± 89
- colonies (CFUs), mean ± SD (AGS cells [9]; [14]): 329 ± 152
- colonies (CFUs), mean ± SD (AGS cells [9]; [19]): 268 ± 63
- colonies (CFUs), mean ± SD (AGS cells [9]; [15]): 0
- percentage of viable cells (HPDE cells; dose 2.5 µM): 88.7955% and 72.4125% and 95.3401%
- percentage of viable cells (HPDE cells; dose 5 µM): 78.4314% and 72.7203% and 72.6353%
- percentage of viable cells (HPDE cells; dose 10 µM): 57.5163% and 55.8292% and 52.5038%
- percentage of viable cells (HPDE cells; dose 25 µM): 22.9225% and 35.4367% and 19.9292%
- percentage of viable cells (HPDE cells; dose 50 µM): 8.5901% and 14.6939% and 8.599%
- IC50 (HPDE cells): 15 µM and 14.2 µM
- percentage of viable cells (CC2509 fibroblasts; dose 2.5 µM): 101.369% and 68.5642% and 72.6415%
- percentage of viable cells (CC2509 fibroblasts; dose 5 µM): 100.382% and 62.1377% and 89.6445%
- percentage of viable cells (CC2509 fibroblasts; dose 10 µM): 50.1592% and 62.7776% and 90.9953%
- percentage of viable cells (CC2509 fibroblasts; dose 25 µM): 52.2611% and 59.729% and 78.3886%
- percentage of viable cells (CC2509 fibroblasts; dose 50 µM): 30.3822% and 34.0139% and 46.6351%
- IC50 (CC2509 fibroblasts): 35 µM and 33.8 µM

Compound: CC(C)[NH][Pt@SP3]([I])([I])[NH]C(C)C [I5, trans-[PtI2(isopropylamine)2]]
- Fold change ΔΨm/MM (MKN45 cells [1]): 0.47 and 0.42 and 0.46
- Fold change %CMXROS, ΔΨm (MKN45 cells [1]): 0.4 and 0.35 and 0.72
- Fold change %MTGreen, MM (MKN45 cells [1]): 0.86 and 0.82 and 1.11
- Fold change %CMXROS, ΔΨm (AGS cells [2]): 0.96 and 0.93 and 0.85
- Fold change %MTGreen, MM (AGS cells [2]): 1.08 and 1.04 and 1.0618
- Fold change ΔΨm/MM (PANC1 cells [3]): 0.46 and 0.55 and 0.5
- Fold change %CMXROS, ΔΨm (PANC1 cells [3]): 1.17 and 1.2 and 1.05
- Fold change %MTGreen, MM (PANC1 cells [3]): 2.17 and 2.54 and 2.28
- CFUs (PANC1 cells [4]; [10]): 176 and 164 and 136
- CFUs (PANC1 cells [4]; [11]): 104 and 76 and 68
- Fold change % Senescence (MKN45 cells [5]): 6.84 fold change and 6.77 fold change and 7.76 fold change
- Fold change % Senescence (AGS cells [6]): 2.4 fold change and 2.38 fold change and 2.1 fold change
- Fold change % Senescence (PANC1 cells [7]): 2.58 fold change and 1.93 fold change and 2.21 fold change
- colonies (CFUs), mean ± SD (MKN45 cells [8]; [16]): 99 ± 6
- colonies (CFUs), mean ± SD (MKN45 cells [8]; [12]): 52 ± 21
- colonies (CFUs), mean ± SD (MKN45 cells [8]; [17]): 0
- colonies (CFUs), mean ± SD (MKN45 cells [8]; [13]): 0
- colonies (CFUs), mean ± SD (AGS cells [9]; [18]): 106 ± 46
- colonies (CFUs), mean ± SD (AGS cells [9]; [14]): 2.3 ± 2.5
- colonies (CFUs), mean ± SD (AGS cells [9]; [19]): 0
- colonies (CFUs), mean ± SD (AGS cells [9]; [15]): 0
- percentage of viable cells (HPDE cells; dose 2.5 µM): 94.0083% and 103.787% and 91.0112%
- percentage of viable cells (HPDE cells; dose 5 µM): 95.3512% and 98.9765% and 89.3059%
- percentage of viable cells (HPDE cells; dose 10 µM): 88.9979% and 69.4985% and 69.7172%
- percentage of viable cells (HPDE cells; dose 25 µM): 58.8843% and 42.8352% and 30.2314%
- percentage of viable cells (HPDE cells; dose 50 µM): 20.4029% and 27.175% and 15.1157%
- IC50 (HPDE cells): 26 µM and 25 µM and 26.8 µM
- percentage of viable cells (CC2509 fibroblasts; dose 2.5 µM): 100.938% and 100.862% and 91.106%
- percentage of viable cells (CC2509 fibroblasts; dose 5 µM): 83.0553% and 85.5747% and 89.9658%
- percentage of viable cells (CC2509 fibroblasts; dose 10 µM): 93.9868% and 89.8276% and 94.7548%
- percentage of viable cells (CC2509 fibroblasts; dose 25 µM): 85.5057% and 58.6494% and 84.1505%
- percentage of viable cells (CC2509 fibroblasts; dose 50 µM): 74.4584% and 49.6552% and 58.3178%
- percentage of viable cells (CC2509 fibroblasts; dose 100 µM): 38.4658% and 29.1313% and 33.9772%
- IC50 (CC2509 fibroblasts): 74.1 ± 5.42 µM
